In ChEMBL document CHEMBL5512690, “Identification and Validation of PKR as a Direct Target for the Novel Sulfonamide-Substituted Tetrahydroquinoline Nonselective Inhibitor of the NLRP3 Inflammasome” (J Med Chem, 2024) one finds IC50 and CC50 data, which are given here for 29 molecules.

NACHT, LRR and PYD domains-containing protein 3, sequence (Q96P20 whole entry, the tested form may be a part): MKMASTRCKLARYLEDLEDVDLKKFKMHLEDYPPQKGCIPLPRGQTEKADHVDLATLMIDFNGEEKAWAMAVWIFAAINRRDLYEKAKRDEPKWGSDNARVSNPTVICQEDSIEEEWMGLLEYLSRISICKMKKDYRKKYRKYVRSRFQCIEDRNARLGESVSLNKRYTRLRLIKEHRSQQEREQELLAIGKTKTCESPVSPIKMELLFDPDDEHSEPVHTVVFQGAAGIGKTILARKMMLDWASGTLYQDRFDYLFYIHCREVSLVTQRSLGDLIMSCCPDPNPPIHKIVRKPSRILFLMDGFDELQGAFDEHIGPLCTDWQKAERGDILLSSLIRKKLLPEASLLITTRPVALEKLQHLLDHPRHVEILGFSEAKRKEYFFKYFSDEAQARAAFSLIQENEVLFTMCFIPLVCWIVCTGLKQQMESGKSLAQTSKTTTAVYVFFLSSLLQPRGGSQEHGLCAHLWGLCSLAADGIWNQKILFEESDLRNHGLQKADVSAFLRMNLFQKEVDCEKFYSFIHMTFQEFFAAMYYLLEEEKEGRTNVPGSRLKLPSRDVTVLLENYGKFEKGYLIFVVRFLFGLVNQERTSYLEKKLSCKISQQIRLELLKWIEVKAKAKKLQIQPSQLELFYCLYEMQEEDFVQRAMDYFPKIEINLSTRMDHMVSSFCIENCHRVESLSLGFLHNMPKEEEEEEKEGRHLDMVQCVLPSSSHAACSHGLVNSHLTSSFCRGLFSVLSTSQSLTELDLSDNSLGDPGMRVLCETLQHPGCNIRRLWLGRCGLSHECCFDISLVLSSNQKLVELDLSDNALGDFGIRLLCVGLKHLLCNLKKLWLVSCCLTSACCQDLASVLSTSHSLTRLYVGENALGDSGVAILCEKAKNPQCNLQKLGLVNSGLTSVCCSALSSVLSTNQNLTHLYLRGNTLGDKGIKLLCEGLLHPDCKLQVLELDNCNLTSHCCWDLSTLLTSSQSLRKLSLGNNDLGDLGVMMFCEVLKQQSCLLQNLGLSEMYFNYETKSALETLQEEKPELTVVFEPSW

The first assay concerns the target NACHT, LRR and PYD domains-containing protein 3 (Homo sapiens, UniProt Q96P20).
Description: Inhibition of NLRP3 inflammasome activation in LPS primed human differentiated THP-M cells derived PMA induced THP-1 cells assessed as inhibition of IL-1 beta level preincubated with compound for 24 hrs followed by LPS stimulation for 3 hrs and further incubated with ATP for 1 hr by ELISA method
For the molecule `O=C(O)c1ccc(/C=C2\SC(=S)N(Cc3cccc(C(F)(F)F)c3)C2=O)cc1`, 5.33 µM corresponded to half-maximal inhibition (IC50).

System in the next assay: not listed separately
Kind of assay: Cytotoxicity against human differentiated THP-M cells derived PMA induced THP-1 cells measured after 72 hrs by MTT assay. In general terms: Tetrazolium dyes change colour on reduction, which living cells bring about.
In the case of `O=C(O)c1ccc(/C=C2\SC(=S)N(Cc3cccc(C(F)(F)F)c3)C2=O)cc1`, the CC50 (usually the concentration that lowers cell viability or growth by half) is more than 100 µM. Still for that read-out and setting: next, `CS(=O)(=O)N1CCCc2ccc(NS(=O)(=O)c3ccc(Br)cc3)cc21`: more than 100 µM.

On to `CS(=O)(=O)N1CCCc2ccc(NS(=O)(=O)c3cccs3)cc21`, for which the 50% cytotoxic concentration (CC50) was more than 100 µM. Still for that read-out and setting: next, `CS(=O)(=O)N1CCCc2ccc(NS(=O)(=O)c3cccc4ccccc34)cc21`: more than 100 µM. As to `CS(=O)(=O)N1CCCc2ccc(NS(=O)(=O)c3ccccn3)cc21`, the CC50 was more than 100 µM.

Take `CS(=O)(=O)N1CCCc2ccc(NS(=O)(=O)c3ccc(C#N)cc3)cc21`: the half-maximal cytotoxic concentration (CC50) is more than 100 µM. The same measure, in the same setting: next, `CC(=O)c1ccc(S(=O)(=O)Nc2ccc3c(c2)N(S(C)(=O)=O)CCC3)cc1`: more than 100 µM; `CS(=O)(=O)N1CCCc2ccc(NS(=O)(=O)c3ccc4ccccc4c3)cc21`: more than 100 µM; `CS(=O)(=O)N1CCCc2ccc(NS(=O)(=O)c3ccc(F)cc3)cc21`: more than 100 µM. `CS(=O)(=O)N1CCCc2ccc(NS(=O)(=O)c3ccccc3)cc21` returned a CC50 of more than 100 µM. Still for that read-out and setting: next, `CS(=O)(=O)N1CCCc2ccc(NS(=O)(=O)c3cccc4cccnc34)cc21`: more than 100 µM; `CS(=O)(=O)N1CCCc2ccc(NS(=O)(=O)c3ccccc3[N+](=O)[O-])cc21`: more than 100 µM. Same read-out and setting: for `CS(=O)(=O)Nc1ccc2c(c1)N(S(C)(=O)=O)CCC2` the value was more than 100 µM; for `CS(=O)(=O)N1CCCc2ccc(NS(=O)(=O)c3ccc(C(F)(F)F)cc3)cc21`, more than 100 µM. Regarding `COC(=O)c1ccsc1S(=O)(=O)Nc1ccc2c(c1)N(S(C)(=O)=O)CCC2`, the half-maximal cytotoxic concentration (CC50) is more than 100 µM. On the same count and under the same terms, next, `CS(=O)(=O)N1CCCc2ccc(NS(=O)(=O)c3ccc(Cl)cc3)cc21`: more than 100 µM; `CS(=O)(=O)N1CCCc2ccc(NS(=O)(=O)c3cccc(F)c3)cc21`: more than 100 µM. On the same count and under the same terms, next, `CS(=O)(=O)N1CCCc2ccc(NS(=O)(=O)c3ccccc3F)cc21`: more than 100 µM.

On to `CS(=O)(=O)N1CCCc2ccc(NS(=O)(=O)Cc3ccccc3)cc21`, for which the 50% cytotoxic concentration (CC50) is more than 100 µM. Molecule `CC(=O)Nc1ccc(S(=O)(=O)Nc2ccc3c(c2)N(S(C)(=O)=O)CCC3)cc1` returned a CC50 of more than 100 µM. Still for that read-out and setting: next, `COc1ccc(S(=O)(=O)Nc2ccc3c(c2)N(S(C)(=O)=O)CCC3)cc1`: more than 100 µM; `CCCS(=O)(=O)Nc1ccc2c(c1)N(S(C)(=O)=O)CCC2`: more than 100 µM.

For the molecule `CC(C)(C)c1ccc(S(=O)(=O)Nc2ccc3c(c2)N(S(C)(=O)=O)CCC3)cc1`, the CC50 was more than 100 µM.

The molecule `CCS(=O)(=O)Nc1ccc2c(c1)N(S(C)(=O)=O)CCC2` yielded a half-maximal cytotoxic concentration (CC50) of more than 100 µM.

As for `CS(=O)(=O)N1CCCc2ccc(NS(=O)(=O)c3ccc([N+](=O)[O-])cc3)cc21`, the CC50 was more than 100 µM. Still for that read-out and setting: for `CCCCS(=O)(=O)Nc1ccc2c(c1)N(S(C)(=O)=O)CCC2` the value was more than 100 µM; for `COC(=O)c1ccc(S(=O)(=O)Nc2ccc3c(c2)N(S(C)(=O)=O)CCC3)cc1`, more than 100 µM; for `Cc1ccc(S(=O)(=O)Nc2ccc3c(c2)N(S(C)(=O)=O)CCC3)cc1`, more than 100 µM. The same measure, in the same setting: for `CS(=O)(=O)N1CCCc2ccc(NS(=O)(=O)c3cc(C(F)(F)F)cc(C(F)(F)F)c3)cc21` the value was more than 100 µM.
